# Experimental data as given in patent US20230165818A1, “COMPOSITION FOR REDUCING HEPATIC TRIGLYCERIDES AND/OR IMPROVING GLUCOSE METABOLISM” (Compagnie Gervais Danone, priority 2020, published 2023).
# How the values were obtained:
# [1] = test system: FAO rat hepatocytes; experiment: Hepatic glucose production (HGP) in FAO cells; type: cell-based
# Protocol: FAO rat hepatocytes were maintained in RPMI 1640 medium (Invitrogen) supplemented with 10% FBS. Cells were maintained in this medium 48 h before treatment. They were then serum-deprived overnight for 16 h with or without insulin (1 nM) and with HICA, HIVA or HMVA product at 10 nM, 100 nM, 1 μM, 10 μM, 100 μM and 1 mM. The cells were washed three times with PBS and incubated with phenol red- and glucose-free DMEM medium supplemented with 20 mM sodium L-lactate and 2 mM sodium pyruvate for 5 h with or without insulin and the indicated study treatment. Cell supernatant was collected, and glucose concentration was measured with the Amplex-Red Glucose assay kit accordingly to the manufacturer's instructions (Invitrogen). Cells were lysed with 50 mM NaOH, and protein concentration was determined using a BCA protein assay kit to normalize glucose production.
# [2] = test system: L6 myocytes; experiment: Glucose uptake in L6 muscle cells; type: cell-based; settings: 0.01, 0.1 or 1 μM, basal and insulin conditions (FIGS. 2G and H)
# Protocol: FIG. 2. (A) HGP of FAO cells treated with a 1 mM mixture of HICA: HIVA: HMVA at molar ratio 1:1:0.5 in basal condition. (B) HGP of FAO cells treated with a 1 mM mixture of HICA: HIVA: HMVA at molar ratio 1:1:0.5 in insulin condition. (C) HGP of FAO cells treated with 0.5 and 1 mM of HICA, leucine or combination of both in basal condition. (D) HGP of FAO cells treated with 0.5 and 1 mM of HICA, leucine or combination of both in insulin condition. (E) Glucose uptake of L6 muscle cells treated with a 0.1 or 1 μM mixture of HICA: HIVA: HMVA at molar ratio 1:1:0.5 in basal condition. (F) Glucose uptake of L6 cells treated with a 0.1 or 1 μM mixture of HICA: HIVA: HMVA at molar ratio 1:1:0.5 in insulin condition. (G) Glucose uptake of L6 cells treated with 0.01, 0.1 or 1 μM of HICA in basal condition. (H) Glucose uptake of L6 cells treated with 0.01, 0.1 or 1 μM of HICA in insulin condition.*p<0.05 versus control, **p<0.01 versus control, ***p<0.001 vs control, kp<0.05 versus Leu 0.5 mM, ^$ p<0.05 versus Leu 1 mM, ^$$ p<0.01 versus Leu 1 mM, ^$$$ p<0.001 versus Leu 1 mM. For panel C, D, G, H expressed in fold, basal and basal insulin are considered as a reference and represented by a dash line.
# The Inventors elected to test the hypothesis that BCHA could exert direct effects in relevant cells. […]
structure (smiles),measurement,setting,value
"CC(C)CC(O)C(=O)O (stereo not drawn) [HICA, alpha-hydroxyisocaproic acid]",effect on HGP in combination with leucine,[1]; 0.5 and 1 mM HICA combined with leucine (FIGS. 2C and D),competed the effect of its BCAA leucine precursor
same,basal HGP,"[1]; 0.5 and 1 mM, basal condition (FIG. 2C)",dose-dependently inhibited
same,insulin-suppressed HGP,"[1]; 0.5 and 1 mM, insulin condition (FIG. 2D)",dose-dependently inhibited
same,"glucose uptake, individual BCHA",[2],these effects appeared to be mostly explained by HICA
